Assay results published in ChEMBL document CHEMBL5120960, “Unveiling the Structure-Activity Relationships at the Orthosteric Binding Site of P2X Ion Channels: The Route to Selectivity” (J Med Chem, 2022).

Assays:
Assay type in all cases: cell-based
[1] = target: T1, P2X purinoceptor 4 (Homo sapiens, UniProt Q99571); test: Antagonist activity at human P2X4R expressing HEK293 cells assessed as reduction in intracellular Ca2+ influx pretreated with Fluo-4 for 1 hr followed by compound addition and further incubated for 30 mins in presence of ATP by multimode plate reader analysis
T1 sequence (Q99571 whole entry): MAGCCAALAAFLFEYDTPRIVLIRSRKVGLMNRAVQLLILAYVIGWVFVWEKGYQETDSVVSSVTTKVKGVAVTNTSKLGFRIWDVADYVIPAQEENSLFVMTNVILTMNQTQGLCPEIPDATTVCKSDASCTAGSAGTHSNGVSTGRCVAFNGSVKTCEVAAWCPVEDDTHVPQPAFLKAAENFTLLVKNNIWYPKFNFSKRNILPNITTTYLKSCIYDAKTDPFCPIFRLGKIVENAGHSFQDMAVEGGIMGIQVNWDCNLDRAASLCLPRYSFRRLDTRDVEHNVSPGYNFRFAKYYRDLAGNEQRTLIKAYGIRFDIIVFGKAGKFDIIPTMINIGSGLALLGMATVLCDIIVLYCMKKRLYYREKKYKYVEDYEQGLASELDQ

[2] = target: T2, P2X purinoceptor 3 (Homo sapiens, UniProt P56373); test: […] activity at human P2X3R expressing CHO cells assessed as reduction in intracellular Ca2+ influx pretreated with Fluo-4 for 1 hr followed by compound addition and further incubated for 30 mins in presence of ATP by multimode plate reader analysis
T2 sequence (P56373 whole entry): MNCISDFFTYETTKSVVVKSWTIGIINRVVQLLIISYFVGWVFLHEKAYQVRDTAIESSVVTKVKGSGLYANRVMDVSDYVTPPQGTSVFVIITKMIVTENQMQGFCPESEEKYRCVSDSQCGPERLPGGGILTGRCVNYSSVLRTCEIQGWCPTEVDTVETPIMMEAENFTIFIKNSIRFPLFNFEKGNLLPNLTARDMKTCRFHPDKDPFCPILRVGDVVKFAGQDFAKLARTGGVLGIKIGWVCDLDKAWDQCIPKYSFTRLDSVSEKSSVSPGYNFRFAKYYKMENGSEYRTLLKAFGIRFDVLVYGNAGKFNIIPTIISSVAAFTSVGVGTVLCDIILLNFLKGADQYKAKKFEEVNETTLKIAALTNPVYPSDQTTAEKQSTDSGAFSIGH

[3] = target: T3, P2X purinoceptor 7 (Homo sapiens, UniProt Q99572); test: Antagonist activity at human P2X7R expressing HEK293 cells assessed as reduction in intracellular Ca2+ influx pretreated with Fluo-4 for 1 hr followed by compound addition and further incubated for 30 mins in presence of ATP by multimode plate reader analysis
T3 sequence (Q99572 whole entry): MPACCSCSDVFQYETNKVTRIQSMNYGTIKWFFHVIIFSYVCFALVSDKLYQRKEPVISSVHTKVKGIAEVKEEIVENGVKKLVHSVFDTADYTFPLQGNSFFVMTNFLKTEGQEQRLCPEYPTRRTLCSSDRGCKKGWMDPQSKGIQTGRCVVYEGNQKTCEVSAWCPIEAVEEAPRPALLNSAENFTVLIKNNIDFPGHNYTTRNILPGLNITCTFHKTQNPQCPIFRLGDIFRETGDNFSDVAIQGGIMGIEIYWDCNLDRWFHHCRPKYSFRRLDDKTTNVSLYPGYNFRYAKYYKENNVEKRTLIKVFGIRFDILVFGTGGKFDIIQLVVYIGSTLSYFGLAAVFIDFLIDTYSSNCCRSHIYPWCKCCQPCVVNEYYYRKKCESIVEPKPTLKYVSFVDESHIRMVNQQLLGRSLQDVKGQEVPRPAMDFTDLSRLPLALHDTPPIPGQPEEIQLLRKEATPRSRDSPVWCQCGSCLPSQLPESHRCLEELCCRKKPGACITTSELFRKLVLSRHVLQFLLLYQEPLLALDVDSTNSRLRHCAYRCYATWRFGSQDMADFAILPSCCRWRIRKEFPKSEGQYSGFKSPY

[4] = target: T4, P2X purinoceptor 1 (Homo sapiens, UniProt P51575); test: Antagonist activity at human P2X1R expressing CHO cells assessed as reduction in intracellular Ca2+ influx pretreated with Fluo-4 for 1 hr followed by compound addition and further incubated for 30 mins in presence of ATP by multimode plate reader analysis
T4 sequence (P51575 whole entry): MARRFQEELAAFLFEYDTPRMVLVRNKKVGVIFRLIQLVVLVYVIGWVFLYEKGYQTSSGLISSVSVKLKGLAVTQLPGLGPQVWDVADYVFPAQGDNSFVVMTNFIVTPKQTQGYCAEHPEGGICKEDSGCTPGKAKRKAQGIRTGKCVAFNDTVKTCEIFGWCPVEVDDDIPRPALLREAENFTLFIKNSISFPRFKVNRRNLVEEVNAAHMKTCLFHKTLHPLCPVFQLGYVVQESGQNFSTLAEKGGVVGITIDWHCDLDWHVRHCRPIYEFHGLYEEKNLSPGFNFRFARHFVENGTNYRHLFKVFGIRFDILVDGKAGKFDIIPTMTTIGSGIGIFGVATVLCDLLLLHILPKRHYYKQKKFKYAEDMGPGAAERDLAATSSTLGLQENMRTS

[5] = target: T1, P2X purinoceptor 4; test: […] activity at human P2X4R expressing HEK293 cells assessed as reduction in intracellular Ca2+ influx pretreated with Fluo-4 for 1 hr followed by compound addition and further incubated for 30 mins in presence of ATP by multimode plate reader analysis
[6] = target: T5, P2X purinoceptor 2 (Homo sapiens, UniProt Q9UBL9); test: Antagonist activity at human P2X2R expressing CHO cells assessed as reduction in intracellular Ca2+ influx pretreated with Fluo-4 for 1 hr followed by compound addition and further incubated for 30 mins in presence of ATP by multimode plate reader analysis
T5 sequence (Q9UBL9 whole entry): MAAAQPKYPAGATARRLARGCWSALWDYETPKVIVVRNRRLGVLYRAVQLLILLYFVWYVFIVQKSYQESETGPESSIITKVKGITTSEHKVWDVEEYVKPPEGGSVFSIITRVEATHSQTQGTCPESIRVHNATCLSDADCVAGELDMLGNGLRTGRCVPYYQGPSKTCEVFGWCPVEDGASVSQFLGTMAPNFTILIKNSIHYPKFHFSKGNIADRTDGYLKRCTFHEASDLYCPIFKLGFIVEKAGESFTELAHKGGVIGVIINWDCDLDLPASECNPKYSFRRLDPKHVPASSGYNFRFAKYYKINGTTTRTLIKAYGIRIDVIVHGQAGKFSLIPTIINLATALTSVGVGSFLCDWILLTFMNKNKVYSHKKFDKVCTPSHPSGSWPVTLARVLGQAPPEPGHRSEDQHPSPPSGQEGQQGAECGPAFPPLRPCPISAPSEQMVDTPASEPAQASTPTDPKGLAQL

[7] = target: T2, P2X purinoceptor 3; test: Antagonist activity at human P2X3R expressing CHO cells assessed as reduction in intracellular Ca2+ influx pretreated with Fluo-4 for 1 hr followed by compound addition and further incubated for 30 mins in presence of ATP by multimode plate reader analysis
[8] = target: T3, P2X purinoceptor 7; test: […] activity at human P2X7R expressed in HEK293 cells assessed as reduction in YO-PRO-1 iodide dye uptake preincubated for 30 mins followed by YO-PRO-1 iodide addition and measured after 2 hrs by fluorescence based multimode plate reader analysis
[9] = target: T3, P2X purinoceptor 7; test: […] activity at human P2X7R expressing HEK293 cells assessed as reduction in intracellular Ca2+ influx pretreated with Fluo-4 for 1 hr followed by compound addition and further incubated for 30 mins in presence of ATP by multimode plate reader analysis
[10] = target: T6, P2X2/P2X3 heterotrimeric receptor (Homo sapiens, UniProt P56373+Q9UBL9); test: Antagonist activity at human P2X2R/P2X3R expressing CHO cells assessed as reduction in intracellular Ca2+ influx pretreated with Fluo-4 for 1 hr followed by compound addition and further incubated for 30 mins in presence of ATP by multimode plate reader analysis
T6 sequence (Q9UBL9 whole entry): T5 sequence (Q9UBL9 whole entry)
T6 sequence (P56373 whole entry): T2 sequence (P56373 whole entry)

[11] = target: T4, P2X purinoceptor 1; test: […] activity at human P2X1R expressing CHO cells assessed as reduction in intracellular Ca2+ influx pretreated with Fluo-4 for 1 hr followed by compound addition and further incubated for 30 mins in presence of ATP by multimode plate reader analysis
[12] = target: T6, P2X2/P2X3 heterotrimeric receptor; test: […] activity at human P2X2R/P2X3R expressing CHO cells assessed as reduction in intracellular Ca2+ influx pretreated with Fluo-4 for 1 hr followed by compound addition and further incubated for 30 mins in presence of ATP by multimode plate reader analysis
[13] = target: T5, P2X purinoceptor 2; test: […] activity at human P2X2R expressing CHO cells assessed as reduction in intracellular Ca2+ influx pretreated with Fluo-4 for 1 hr followed by compound addition and further incubated for 30 mins in presence of ATP by multimode plate reader analysis

Row | IC50 [1] | EC50 [2] | IC50 [3] | IC50 [4] | EC50 [5] | IC50 [6] | IC50 [7] | EC50 [8] | EC50 [9] | IC50 [10] | EC50 [11] | EC50 [12] | EC50 [13] | IC50 [2] | IC50 [5] | IC50 [8] | IC50 [9] | IC50 [11] | IC50 [12] | IC50 [13] | SMILES
1 | > 100 µM | > 100 µM | > 100 µM | > 100 µM | 1.48 µM | 26.3 µM | > 100 µM | > 100 µM | > 100 µM | > 100 µM | > 100 µM | 1.2 µM | > 100 µM | – | – | – | – | – | – | – | Nc1ncnc2c1ncn2[C@@H]1O[C@H](COP(=O)(O)OP(=O)(O)OP(=O)(O)O)[C@@H](OC(=O)c2ccccc2)[C@H]1OC(=O)c1ccccc1
2 | > 100 µM | – | > 100 µM | > 100 µM | – | > 100 µM | > 100 µM | – | – | > 100 µM | – | – | – | > 100 µM | > 100 µM | > 100 µM | > 100 µM | > 100 µM | > 100 µM | > 100 µM | COc1ccc(C(=O)O[C@@H]2[C@H](OC(=O)c3ccc(OC)cc3)[C@@H](COP(=O)(O)OP(=O)(O)OP(=O)(O)O)O[C@H]2n2cnc3c(N)ncnc32)cc1
